Laboratory results reported in paper PMC6212778, “Site-specific amino acid substitution in dodecameric peptides determines the stability and unfolding of c-MYC quadruplex promoting apoptosis in cancer cells” (Nucleic Acids Research, 2018).

Tests used:
[1] = system: native c-MYC quadruplex (Pu27); assay: ITC of peptides with native c-MYC quadruplex Pu27 in potassium phosphate buffer; format: binding, human; conditions: for K A / Kd / ΔG (binding energy) / ΔH (binding enthalpy) / ΔS (entropy): 25°C, 20 μM peptide in cell, 500 μM Pu27 in syringe, 10 mM potassium phosphate, 0.1 M KCl, pH 7.0, one-site model
Experimental: The putative wild-type and truncated G-quadruplex forming sequences (Table 2 and Supplementary Table S1), located at the upstream of c-MYC promoter are reconstituted in 10 mM Potassium Phosphate buffer (pH 7.0) having 100 mM potassium chloride (KCl). The sequences are allowed to evolve G-quadruplex structure in solution by annealing at 95°C followed by gradual cooling. (Supplementary information Section 1).
Thermodynamic attributes of the interaction profiles between peptides and putative quadruplex sequences are analysed by ITC using iTC200 Microcalorimeter at 25°C. Synthetic peptides (FK13, KR12A, KR12B, KR12C, KR12D and KR12E) are diluted to 20 μM in 10 mM Potassium phosphate buffer (10 mM K2HPO4 + 10 mM KH2PO4) containing 0.1 M KCl (pH 7.0). Syringe is filled with 500 μM quadruplex sequences present in the upstream promoter regions of c-MYC (Pu27, Pu19, and Myc22), BCL-2 (Pu30), VEGF-A (Pu22), KRAS (Pu32) oncogenes, and telomere (Tel26) dissolved into the same buffer. We also carried out the experiment for KR12C and Pu27 using MCF-7 nuclear extract as the solvent to mimic the cellular microenvironment and impart macromolecular crowding during binding events. Same concentration of oligonucleotides is injected into the identical buffer or in nuclear extract without peptides to normalize the heat of dilution of peptide-quadruplex association to that of the control before curve-fitting. Oligonucleotides are injected 20 times at an interval of 150 s into the calorimeter cell having the peptides to achieve binding saturation. The heat of reaction per injection (μcal/s) is determined by integration of the peak areas using in-built Origin 7.0 software that provides the best-fit values of enthalpy (ΔH) and entropy (ΔS) of binding, the binding stoichiometry (n), and dissociation constant (Kd) (Supplementary Tables S5(a), S5(b) and S5(c)). Data points are further simulated with ‘one-site’ binding modes (Supplementary information Section 1).

[2] = system: c-MYC transcripts in MCF-7 cells; assay: Real time PCR of c-MYC transcripts; format: cell-based, human; conditions: MCF-7, 24 h, qPCR normalised to GAPDH
Experimental: To inspect the transcription inhibitory roles of peptides in c-MYC, BCL-2, VEGF-A and KRAS oncogenes having putative quadruplexes in their promoters, we performed real time polymerase chain reactions. MCF-7 cells are sub-cultured into 6-well microtiter plates at a density of 1 × 10^6 cells per well and treated with different concentrations of peptides (FK13, KR12A, KR12B and KR12C) for 24 hours. Total RNA is isolated from both untreated and treated cells using TRIzol method (Invitrogen) as per manufacturer's instructions. 2 μg of total RNA is processed for cDNA synthesis and reverse transcribed using a Super MuLV RT Kit (Biobharati Life Sciences Pvt. Ltd.). Real time PCR is performed using Maxima SYBR Green/ROX qPCR Master Mix (2×) (Thermo-Scientific) as per manufacturer's protocol. Housekeeping gene, GAPDH is used as an internal control to normalize the variability in c-MYC mRNA expression levels (Supplementary information Section 1). PCR primers are designed using Primer-BLAST, NCBI, and analyzed in OligoAnalyser 3.1-IDT (Supplementary Table S2).

[3] = system: RNAPII at c-MYC promoter in MCF-7 cells; assay: ChIP, RNA polymerase II occupancy at c-MYC promoter; format: cell-based, human; conditions: MCF-7, 24 h, ChIP-qPCR versus IgG control
Experimental: Chromatin immunoprecipitation studies are conducted to monitor the promoter occupancies of different transcription factors (Sp1, NM23-H2 and Nucleolin) and RNA polymerase II (RNAPII) on the region encompassing c-MYC-NHE III1 ([69]). We have grown MCF-7 cells in 10-cm^2 culture flask at a density of 1 × 10^6 cells per well and treated with the synthetic peptides (FK13, KR12A, KR12B, and KR12C) for 24 hours. Cells are cross-linked with 1% formaldehyde at room temperature for 10 min and the reaction is stopped by 0.125 M glycine at room temperature for 10 min. Fixed cells are lysed and sonicated to yield DNA fragments of 200–500 bp. ChIP-grade antibodies (NM23-H2 (L-15) Antibody (sc-14790, Santa Cruz), and Anti-Nucleolin antibody [4E2]-ChIP Grade (Abcam)), Anti Sp1 antibody (Sigma), and Rpb1 (RNAPII subunit b1) CTD (C-terminal domain) 4H8 antibody are added to the sonicated chromatin and incubated overnight at 4°C. Then, 10 μl protein A magnetic beads (Dynal, Invitrogen), previously washed in RIPA buffer are added to the samples and bead–protein complexes are washed thrice with RIPA buffer and twice with TE buffer. The genomic DNA is eluted for 2 h at 68°C in complete elution Buffer (20 mM Tris, pH 7.5, 5 mM EDTA, 50 mM NaCl, 1% SDS and 50 μg/ml proteinase K) and further combined with the DNA eluted from second elution for 10 min at 68°C in 100 μl of elution buffer (20 mM Tris, pH 7.5, 5 mM EDTA and 50 mM NaCl). ChIP-isolated DNA is purified using MinElute Purification kit (Qiagen) and is amplified by PCR (Polymerase Chain Reaction) reactions using forward and reverse primers ([70]) (Supplementary Table S4) specific to the quadruplex-enriched regions at c-MYC promoter and Phusion® High-Fidelity PCR Kit (NEB). Anti-rabbit IgG is employed for mock immunoprecipitation (Negative control).

[4] = potassium phosphate buffer pH 7.0

Substance | K A [1] [M⁻¹] | Kd [1] [µM] | ΔG (binding energy) [1] [kcal/mol] | ΔH (binding enthalpy) [1] [kcal/mol] | ΔS (entropy) [1] [cal/mol/deg] | c-MYC transcription [2] | RNAPII occupancy at c-MYC promoter [3] | fold higher binding ΔH for Pu27 association compared to KR12B and KR12D [1, 4] [fold] | times higher affinity for Pu27 compared to KR12B and KR12D [1, 4] [times] | c-MYC transcription, fold repression [2] [fold]
N – KRIVQRIKKWLR – C [KR12A, dodecameric mutant peptide derived from FK13 / LL37] | 16200 | 61.7 | -6.44 | -72 | −220 | downregulated c-MYC transcription in a dose-dependent manner | depleted RNAPII occupancy | – | – | –
N – KRIVKLIKKWLR – C [KR12C] | 124000 | 8.06 | -6.974 | -47.8 | −137 | – | significantly depleted | ~2 | ~5 | ~5
N – KRIVKRIKKWLR – C [KR12B, dodecameric mutant peptide derived from FK13 / LL37] | 26800 | 37.3 | -6.18 | -137.3 | −440 | – | significantly depleted | – | – | ~5
N – FKRIVQRIKDFLR – C [FK13] | 28900 | 34.6 | -5.982 | -77.8 | −241 | did not downregulate c-MYC transcription | did not significantly altered | – | – | –
